According to patent US20220340564A1, “ANTIBACTERIAL COMPOUNDS” (Janssen Sciences Ireland Unlimited Company, priority 2019, published 2022):
Read-outs that look alike come from different tables or passages of the source.

Experiments:
Na Ch = experiment: CVS panel, Na channel
Ca Ch = experiment: CVS panel, Ca channel
Excerpt: (§1) The compounds of the invention/examples may have advantages associated with in vitro potency, kill kinetics (i.e. bactericidal effect) in vitro, PK properties, food effect, safety/toxicity (including liver toxicity, coagulation, […]), metabolic stability, Ames II negativity, MNT negativity, aqueous based solubility (and ability to formulate) and/or cardiovascular effect e.g. on animals (e.g. anesthetized guinea pig). The data below that was generated/calculated may be obtained using standard methods/assays, for instance that are available in the literature or which may be performed by a supplier (e.g. Microsomal Stability Assay—Cyprotex, Mitochondrial toxicity (Glu/Gal) assay —Cyprotex, as well as literature CYP cocktail inhibition assays). In some instances, GSH was measured (reactive metabolites, glucuronidation) to observe if a dihydrodiol is observed by LCMS (fragmentation ions), which would correspond to a dihydroxylation on the core heterocycle.

[1] = Microsomal stability CLint (H); details: human, microsomes
hERGdof = hERGdof (Homo sapiens, UniProt Q12809); experiment: CVS panel, hERGdof; type: binding
hERGdof, sequence (Q12809 whole entry): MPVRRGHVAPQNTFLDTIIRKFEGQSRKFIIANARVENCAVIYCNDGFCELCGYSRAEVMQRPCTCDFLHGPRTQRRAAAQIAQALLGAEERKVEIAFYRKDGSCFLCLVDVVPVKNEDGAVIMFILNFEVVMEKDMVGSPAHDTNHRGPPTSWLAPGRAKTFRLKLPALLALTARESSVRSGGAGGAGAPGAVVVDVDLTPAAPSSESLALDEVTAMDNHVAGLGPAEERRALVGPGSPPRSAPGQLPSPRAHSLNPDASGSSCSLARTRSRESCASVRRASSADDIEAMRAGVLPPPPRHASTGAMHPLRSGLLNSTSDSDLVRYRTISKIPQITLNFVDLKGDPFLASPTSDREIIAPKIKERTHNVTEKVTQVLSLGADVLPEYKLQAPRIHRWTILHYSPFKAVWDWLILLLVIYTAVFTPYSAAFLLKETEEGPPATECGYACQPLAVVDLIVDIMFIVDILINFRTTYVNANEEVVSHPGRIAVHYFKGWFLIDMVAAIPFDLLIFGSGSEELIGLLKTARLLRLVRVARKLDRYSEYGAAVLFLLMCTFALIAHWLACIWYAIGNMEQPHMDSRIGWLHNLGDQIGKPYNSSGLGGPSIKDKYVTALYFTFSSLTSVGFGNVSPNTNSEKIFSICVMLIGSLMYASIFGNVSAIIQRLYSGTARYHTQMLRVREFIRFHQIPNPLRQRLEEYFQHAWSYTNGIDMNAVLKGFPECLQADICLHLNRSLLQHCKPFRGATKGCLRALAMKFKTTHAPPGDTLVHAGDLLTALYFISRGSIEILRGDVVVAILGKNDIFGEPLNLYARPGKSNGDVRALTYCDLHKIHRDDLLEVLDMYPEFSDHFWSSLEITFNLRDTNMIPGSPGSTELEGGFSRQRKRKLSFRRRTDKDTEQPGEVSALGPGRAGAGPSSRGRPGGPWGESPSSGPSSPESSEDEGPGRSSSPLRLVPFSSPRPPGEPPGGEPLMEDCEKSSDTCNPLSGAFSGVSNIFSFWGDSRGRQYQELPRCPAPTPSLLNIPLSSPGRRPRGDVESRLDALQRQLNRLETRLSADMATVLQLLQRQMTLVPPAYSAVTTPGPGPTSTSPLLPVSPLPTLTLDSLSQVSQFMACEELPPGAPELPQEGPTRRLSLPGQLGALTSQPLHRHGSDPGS

[2] = tested on: Mycobacterium tuberculosis strain EH4.0 expressing green-fluorescent protein (GFP); experiment: microbe, parasite or virus in culture; type: cell-based; details: 168 h, read-out: pIC50 (converted)
[3] = Microsomal stability CLint (M); details: mouse, microsomes
[4] = tested on: Cyp-450 (cocktail, isoforms not named); experiment: Cocktail Cyp-450 inhibition; type: in vitro ADME; details: unit inferred; read-out: Cocktail Cyp-450, IC50
Excerpt: as §1

in vitro [5] = details: human, microsomes
[6] = GSH (GSH/CN) reactive metabolite measurement; type: in vitro ADME
Excerpt: as §1

[7] = Mitochondrial toxicity (Glu/Gal) assay; type: cell-based
Excerpt: as §1

in vitro [8] = details: mouse, microsomes
hERG = hERG (Homo sapiens, UniProt Q12809); experiment: CVS panel, hERGdof; type: binding; details: human
hERG, sequence (Q12809 whole entry): as above

[9] = in vivo
[10] = Bioavailability in rodents
CYP3A4 = CYP3A4 (Homo sapiens, UniProt P08684); experiment: Cocktail Cyp-450 inhibition, CYP3A4; type: in vitro ADME
CYP3A4, sequence (P08684 whole entry): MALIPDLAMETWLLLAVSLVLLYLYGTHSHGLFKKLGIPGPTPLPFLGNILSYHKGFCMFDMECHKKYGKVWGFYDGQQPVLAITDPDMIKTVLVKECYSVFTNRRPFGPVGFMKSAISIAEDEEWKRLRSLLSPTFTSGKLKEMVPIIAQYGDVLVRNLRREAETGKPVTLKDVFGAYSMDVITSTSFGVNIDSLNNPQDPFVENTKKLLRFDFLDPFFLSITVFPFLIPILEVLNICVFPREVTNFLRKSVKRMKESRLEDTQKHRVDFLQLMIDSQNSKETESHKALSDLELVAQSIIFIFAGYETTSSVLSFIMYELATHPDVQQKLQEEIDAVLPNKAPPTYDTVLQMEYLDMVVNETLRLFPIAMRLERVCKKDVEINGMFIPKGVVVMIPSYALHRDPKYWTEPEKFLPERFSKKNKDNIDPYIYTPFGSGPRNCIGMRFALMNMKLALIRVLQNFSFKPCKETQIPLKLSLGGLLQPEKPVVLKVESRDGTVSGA

With CCc1nc2ccc(Cl)cn2c1C(=O)NCc1ccc(N2CCN(S(=O)(=O)C(F)(F)F)C=N2)c(F)c1 [Compound 9] the IC50 (Na Ch) was > 10 µM, the IC50 (Ca Ch) was > 10 µM and the microsomal CLint [1] was 19 µL/min/mg. For the same compound, the IC50 (hERGdof; read-out: CVS hERGdof, IC50) was > 10 µM, the IC50 [2] was 0.000631 µM and the microsomal CLint [3] was 41 µL/min/mg. The IC50 [4] was > 20 µM.
With CCc1nc2ccc(Cl)cn2c1C(=O)NCc1ccc(N2CCN(S(=O)(=O)C(F)(F)F)C(OC)=N2)cc1 [Compound 6] the IC50 (Na Ch) was > 10 µM, the IC50 (Ca Ch) was > 10 µM and the microsomal CLint (in vitro [5]) was 37.6 µL/min/mg. For the same compound, the IC50 (hERGdof; read-out: CVS hERGdof, IC50) was > 10 µM, the IC50 [2] was 0.00631 µM and the IC50 [4] was > 20 µM. The “GSH / reactive metabolites” value [6] was “no measure of GSH”, the “Glu/Gal assay ratio (mitotoxicity)” value [7] was < 3 and the microsomal CLint (in vitro [8]) was 49 µL/min/mg.
In the case of CCc1nc2ncc(Cl)cn2c1C(=O)NCc1ccc(N2CCN(S(=O)(=O)C(F)(F)F)C=N2)cc1 [Compound 13], the IC50 (Na Ch) is reported as > 10 µM, the IC50 (Ca Ch) is reported as > 10 µM and the microsomal CLint [1] is reported as 16.3 µL/min/mg. It also gave an IC50 (hERG) of 7.4 µM, an IC50 [2] of 0.00398 µM and a microsomal CLint [3] of 13.3 µL/min/mg. For the same compound, the IC50 [4] was > 20 µM.
With O=C(NCc1ccc(N2CCN(S(=O)(=O)C(F)(F)F)C=N2)c(F)c1)c1c(C(F)(F)F)nc2ccccn12 [Compound 152] the IC50 [2] was 0.002 µM, the “GSH / reactive metabolites” value [6] was “formation of reactive metabolites was blocked” and the “Glu/Gal assay ratio (mitotoxicity)” value [7] was < 3. For the same compound, the “bioavailability (as shown in rodents)” value [9] was “good bioavailaibility”.
For CCc1nc2ccc(Cl)cn2c1C(=O)NCc1ccc(N2CCN(S(=O)(=O)C(F)(F)F)C=N2)cc1F [Compound 16], the IC50 (Na Ch) was > 10 µM, the IC50 (Ca Ch) was > 10 µM and the microsomal CLint [1] was 24 µL/min/mg. For the same compound, the IC50 (hERGdof; read-out: CVS hERGdof, IC50) was > 10 µM, the IC50 [2] was 0.00631 µM and the microsomal CLint [3] was 18 µL/min/mg. For the same compound, the IC50 [4] was > 20 µM.
For CCc1nc2ccc(Cl)cn2c1C(=O)NCc1ccc(N2CCN(S(=O)(=O)C(F)(F)F)C=N2)cc1 [Compound 1], the IC50 (Na Ch) was > 10 µM, the IC50 (Ca Ch) was > 10 µM and the microsomal CLint [1] was 29.6 µL/min/mg. The IC50 (hERGdof) was > 10 µM, the IC50 [2] was 0.00708 µM and the microsomal CLint [3] was 21.5 µL/min/mg. The IC50 [4] was > 20 µM, the “Glu/Gal assay ratio (mitotoxicity)” value [7] was < 3 and the “bioavailability (as shown in rodents)” value [10] was “good bioavailaibility”.
In the case of CCc1nc2ncc(C(C)=O)cn2c1C(=O)NCc1ccc(N2CCN(S(=O)(=O)C(F)(F)F)C=N2)cc1 [Compound 62], the IC50 [2] is reported as ≥ 0.501 µM.
CCc1nc2c(Cl)cccn2c1C(=O)NCc1ccc(N2CCN(S(=O)(=O)C(F)(F)F)C=N2)c(F)c1 [Compound 129] gave an IC50 [2] of 0.00891 µM.
CCc1nc2nc(OC)ccn2c1C(=O)NCc1ccc(N2CCN(S(=O)(=O)C(F)(F)F)C=N2)c(F)c1 [Compound 115] showed an IC50 [2] of 0.0158 µM.
CCc1nc2nc3c(cn2c1C(=O)NCc1ccc(N2CCN(S(=O)(=O)C(F)(F)F)C=N2)c(F)c1)CCOC3 [Compound 169] showed an IC50 [2] of 0.01 µM.
With CCc1nc2ccc(Cl)cn2c1C(=O)NCc1ccc(N2C=NN(C)CC2)cc1 [Compound 4] the IC50 [2] was 0.0398 µM.
CCc1nc2ccc(Cl)cn2c1C(=O)NCc1ccc(N2CCN(Cc3nc(C(F)(F)F)cs3)C=N2)cc1 [Compound 69] showed an IC50 [2] of 0.126 µM.
CCc1nc2ccc(Cl)cn2c1C(=O)NCc1cnc(N2CCN(S(=O)(=O)C(F)(F)F)C=N2)c(C)c1 [Compound 208] showed an IC50 [2] of 0.0692 µM.
For CCc1nc2ccc(Cl)cn2c1C(=O)NCc1ccc(N2CCN(S(=O)(=O)C(F)(F)F)C=N2)nc1 [Compound 171], the IC50 [2] was 0.0251 µM.
In the case of CCc1nc2ncc(C)cn2c1C(=O)NCc1ccc(N2CCN(S(=O)(=O)C(F)(F)F)C(OC)=N2)c(F)c1 [Compound 193], the IC50 [2] is reported as 0.000891 µM.
For CCc1nc2ccc(Cl)cn2c1C(=O)NCc1ccc(N2CCN(C(=O)C(F)(F)F)C=N2)cc1 [Compound 66], the IC50 [2] was 0.251 µM.
With CCc1nc2ccc(C#N)cn2c1C(=O)NCc1ccc(N2CCN(S(=O)(=O)C(F)(F)F)C(OC)=N2)c(F)c1 [Compound 73] the IC50 (Na Ch) was > 10 µM, the IC50 (Ca Ch) was > 10 µM and the microsomal CLint (in vitro [5]) was 18 µL/min/mg. For the same compound, the IC50 (hERGdof; read-out: CVS hERGdof, IC50) was > 10 µM, the IC50 [2] was 0.0513 µM and the IC50 [4] was > 20 µM. The “GSH / reactive metabolites” value [6] was “no measure of GSH” and the microsomal CLint (in vitro [8]) was 93 µL/min/mg.
Compound O=C(NCc1ccc(N2CCN(S(=O)(=O)C(F)(F)F)C=N2)c(F)c1)c1c(C(F)F)nc2ccccn12 [Compound 159] has an IC50 [2] of 0.0012 µM.
For CCc1nc2cc(OC)c(Cl)cn2c1C(=O)NCc1ccc(N2CCN(S(=O)(=O)C(F)(F)F)C=N2)c(F)c1 [Compound 93], the IC50 [2] was 0.049 µM.
CCc1nc2ccc(Cl)cn2c1C(=O)NCc1ccc(N2CCN(S(=O)(=O)CCOC)C=N2)cc1 [Compound 19] gave an IC50 [2] of 0.0398 µM.
CCc1nc2cc(F)c(Cl)cn2c1C(=O)NCc1ccc(N2CCN(S(=O)(=O)C(F)(F)F)C(OC)=N2)c(F)c1 [Compound 141] gave an IC50 [2] of 0.0049 µM.
With CCc1nc2cc3c(cn2c1C(=O)NCc1ccc(N2CCN(S(=O)(=O)C(F)(F)F)C=N2)c(F)c1)OCO3 [Compound 134] the IC50 [2] was 0.00759 µM.
Work on Cc1cn2c(C(=O)NCc3ccc(N4CCN(S(=O)(=O)C(F)(F)F)C=N4)c(F)c3)c(C(F)(F)F)nc2s1 [Compound 136] yielded an IC50 [2] of 0.00631 µM.
In the case of CCc1nc2ccc(Cl)cn2c1C(=O)NCc1ccc(N2CCN(S(C)(=O)=O)C=N2)cc1 [Compound 20], the IC50 (Na Ch) is reported as > 10 µM, the IC50 (CYP3A4) is reported as 13.2 µM and the IC50 (Ca Ch) is reported as > 10 µM. The microsomal CLint (in vitro [5]) was 56.6 µL/min/mg, the IC50 (hERGdof; read-out: CVS hERGdof, IC50) was > 10 µM and the IC50 [2] was 0.0316 µM. The IC50 [4] was > 20 µM and the microsomal CLint (in vitro [8]) was 15.9 µL/min/mg.
COC1=NN(c2ccc(CNC(=O)c3c(C(F)F)nc4n3CCCC4)cc2)CCN1S(=O)(=O)C(F)(F)F [Compound 109] gave an IC50 [2] of 0.02 µM.
CCc1nc2cc(OC)ccn2c1C(=O)NCc1ccc(N2CCN(S(=O)(=O)C(F)(F)F)C(OC)=N2)c(F)c1 [Compound 75] gave an IC50 [2] of 0.00631 µM.
Work on CCc1nc2ccc(Cl)cn2c1C(=O)NCc1ccc(N2CCN(S(=O)(=O)C(F)(F)F)C(CC#N)=N2)cc1 [Compound 77] yielded an IC50 [2] of 0.00794 µM.
With COC1=NN(c2ccc(CNC(=O)c3c(C(F)F)nc4n3CCCC4)cc2F)CCN1S(=O)(=O)C(F)(F)F [Compound 137] the IC50 [2] was 0.00617 µM.
CCc1nc2ncc(Cl)cn2c1C(=O)NCc1ccc(N2CCN(S(=O)(=O)CC(C)C)C=N2)cc1 [Compound 23] showed an IC50 [2] of 0.0126 µM.
Work on O=C(NCc1ccc(N2CCN(S(=O)(=O)C(F)(F)F)C=N2)cc1)c1c(C2CC2)nc2ncc(Cl)cn12 [Compound 7] yielded an IC50 [2] of 0.0631 µM.
Work on CCc1nc2cc3c(cn2c1C(=O)NCc1ccc(N2CCN(S(=O)(=O)C(F)(F)F)C=N2)c(F)c1)CCC3 [Compound 113] yielded an IC50 [2] of 0.0162 µM.
With CCc1nc2ccc(N3CCCC3)cn2c1C(=O)NCc1ccc(N2CCN(S(=O)(=O)C(F)(F)F)C=N2)cc1 [Compound 65] the IC50 [2] was ≥ 0.501 µM.
For CCc1nc2nc(C)c(Cl)cn2c1C(=O)NCc1ccc(N2CCNC=N2)c(F)c1 [Compound 199], the IC50 [2] was > 0.5 µM.
O=C(NCc1ccc(N2CCN(S(=O)(=O)C(F)(F)F)C=N2)c(F)c1)c1c(C(F)(F)F)nc2n1CCCC2 [Compound 123] showed an IC50 [2] of 0.0102 µM.
CCc1nc2cc(C)c(Cl)cn2c1C(=O)NCc1ccc(N2CCN(S(=O)(=O)C(F)(F)F)C=N2)cc1 [Compound 107] showed an IC50 [2] of 0.024 µM.
